Experimental data from patent US20250127835A1, “COMPOSITION BASED ON PLANT EXTRACTS AND USE THEREOF FOR THE PREVENTION AND/OR TREATMENT OF CARBOHYDRATE AND LIPID DYSMETABOLISM” (ESSERRE PHARMA SRL, priority 2021, published 2025).
Where a name gives a salt, the structure may show the parent alone.

Legend:
[1] = test system: streptozocin-induced diabetic rats; details: 6 mg/kg for 5 weeks; cited from earlier work
[2] = test system: adult individuals with moderate hypercholesterolaemia; test: 6-arm, double-blind, placebo-controlled pilot clinical study, 12 weeks; type: in vivo, humans
Procedure: All the enrolled subjects were subjected, 14 days prior to enrolment (T-14), to a pre-enrolment visit with blood tests to assess meeting the inclusion criteria. The individuals who at TO met the inclusion criteria underwent a randomization visit at which the respective treatment was assigned and blood tests were performed in relation to the reference parameters. The study lasted 12 weeks. At the end of treatment (T12), the subjects were subjected to an end-of-study visit and blood tests. The parameters investigated in the study are: Body mass index, systolic and diastolic blood pressure, blood glucose, total cholesterol, LDL, HDL, triglycerides, GOT, GPT, gGT, creatinine phosphokinase (CPK). […] The treatment called “placebo” consists of a tablet equal in shape, weight, colour size and flavour to the active tablet but containing “inert” material for the desired effect and consists of: microcrystalline cellulose, magnesium stearate, silicon dioxide, calcium phosphate, chlorophylline dye, yellow iron oxide dye, yellow coating agents. The treatments related to groups C, D, E and F consist of one tablet equal in appearance to the tablets of groups A and B but consisting of the single active ingredient, as described above in addition to excipients. The treatment tablets were packaged in anonymous white bottles, showing only the batch number consisting of an alphanumeric code and the expiration date. Neither the investigator nor the study subjects knew the contents of the bottles. The bottles of each treatment were placed in cardboard boxes containing a letter in a sealed envelope with reference to the batch number and content, to be opened only in case of need, as in cases of serious adverse events. After randomization, each study participant was given the vial with 30 tablets for the specific treatment of the group to which they belonged. All the subjects were instructed to take one tablet in the evening before bed for 12 weeks.

hyperglycaemic subjects = details: 300 mg daily dose; cited from earlier work
[3] = test system: 86 subjects of which 60 with type II diabetes mellitus; details: 100 mg per day, after 3 months of supplementation; cited from earlier work
[4] = after 12 weeks, printed as reduction of x% or as −x%

Q: Which results are given for `Cc1ncc(C[n+]2csc(CCO)c2C)c(N)n1` [THIAMINE, thiamine hydrochloride]?
A: HDL-c [1]: increases; insulin [1]: increases; malonyldialdehyde [1]: reduces; serum glucose [1]: reduces; total cholesterol [1]: reduces; triglycerides [1]: reduces; reductions in the parameters of interest ([2]; after 12 weeks): did not show statistically significant reductions; increase of HDL cholesterol (HDL-C) ([2]; after 12 weeks of treatment): no changes; reduction of LDL cholesterol (LDL-C) ([2]; after 12 weeks of treatment): did not achieve a percentage reduction; reduction of fasting plasma glucose (FPG) [2, 4]: not detected; reduction of triglycerides (TG) [2, 4]: −1%; diastolic pressure (hyperglycaemic subjects): reduces; systolic pressure (hyperglycaemic subjects): reduces; total cholesterol [3]: significantly reduces
